Where two headings read alike, the source gives them in different places.

What all share (format): cell-based
In experiment [1] the test system is HIV-1 strain 92HT599. The experiment in a line: Antiviral activity against HIV-1 strain 92HT599 in MT2 cells (p24 estimation). Conditions: HIV-1 92HT599, ~96 hours. In short, it runs like this: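 Percent inhibition versus vehicle controls came from p24 quantified in supernatant aliquots. These were taken after ~96 h incubation of compound (DMSO ≤1%) with MT2 cells infected at 10 TCID50/30,000 cells.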

The subject of experiment [2] is HIV-1 pNL4-3 V7A. The experiment in a line: Antiviral activity against pNL4-3/V7A strain in MT4 cells (p24 estimation). Conditions: Human immunodeficiency virus 1, MT4, 96 h, read-out: pNL4-3 V7A IC50. Here is the method: (§1) Example 78: Evaluation of Compounds Antiviral Activity Against pNL4-3/WT & V7A Strains in MT4 Cells
(§2) MT4 cells were Transfected with HIV-1 Plasmid (pNL4-3-WT & V7A) (Cells were incubating with required number of TCID50 of HIV-1 for 1.5 h at 37° C.). After infection, the infected cells were plated at the concentration of 3×10^4 cells per well in 96 well plate. Test compound was added to the test plate in defined format with the final concentration of DMSO is not more than 1%. Incubation was carried out in CO2 incubator for 4 days for viral infection. At the end of incubation period an aliquot from each well was taken for p24 estimation. p24 estimation was carried out using Advance biosciences kit as per the procedure detailed by supplier.

Experiment [3] has as its system HIV-1 pNL4-3 WT. Nature of the experiment: Antiviral activity against pNL4-3/WT strain in MT4 cells (p24 estimation). To be noted: Human immunodeficiency virus 1, MT4, 96 h, read-out: pNL4-3 WT IC50. Here is the method:
as §1, §2

The mark [4] stands for this setting: Human immunodeficiency virus 1, 0% serum binding assay, read-out: IC50 0% serum.
Where [5] appears, read: Human immunodeficiency virus 1, 40% serum binding assay, read-out: IC50 40% serum.

For `CC(C)C1=C2[C@H]3CC[C@@H]4[C@@]5(C)CC[C@H](OC(=O)[C@H]6C[C@@H](C(=O)O)C6(C)C)C(C)(C)[C@@H]5CC[C@@]4(C)[C@]3(C)CC[C@@]2(NC(=O)C(C)(C)NC(=O)c2cccnc2N2CCOCC2)CC1=O` [Example 31, (1R,3S)-3-((((3aR,5aR,5bR,7aR,9S,11aR,11bR,13aS)-1-isopropyl-5a,5b,8,8,11a-pentamethyl-3a-(2-methyl-2-(2-morpholinonicotinamido)propan amido)-2-oxo-3,3a,4,5,5a,5b,6,7,7a,8,9,10,11,11a,11b,12,13,13a-octadecahydro-2H-cyclopenta[a]chrysen-9-yl)oxy)carbonyl)-2,2-dimethylcyclobutane-1-carboxylic acid], the IC50 (as a rule, the concentration at which inhibition is half-maximal) in experiment [1] (setting [4]) was less than 3 nM; in experiment [1] (setting [5]), less than 50 nM; in experiment [2], greater than 50 nM; in experiment [3], less than 5 nM.

With `CC(C)C1=C2[C@H]3CC[C@@H]4[C@@]5(C)CC[C@H](OC(=O)[C@H]6C[C@@H](C(=O)O)C6(C)C)C(C)(C)[C@@H]5CC[C@@]4(C)[C@]3(C)CC[C@@]2(NC(=O)C(C)(C)NC(=O)c2ncccn2)CC1=O` [Example 32, (1R,3S)-3-((((3aR,5aR,5bR,7aR,9S,11aR,11bR,13aS)-1-isopropyl-5a,5b,8,8,11a-pentamethyl-3a-(2-methyl-2-(pyrimidine-2-carboxamido)propanamido)-2-oxo-3,3a,4,5,5a,5b,6,7,7a,8,9,10,11,11a,11b,12,13,13a-octadecahydro-2H-cyclopenta[a]chrysen-9-yl)oxy)carbonyl)-2,2-dimethylcyclobutane-1-carboxylic acid], the IC50 in experiment [1] (setting [4]) is 3.01 to 10 nM; in experiment [1] (setting [5]), greater than 200 nM; in experiment [2] it was greater than 50 nM; in experiment [3], greater than 10 nM.

For `Cc1cc(C(=O)NC(C)(C)C(=O)N[C@@]23CC[C@]4(C)[C@H](CC[C@@H]5[C@@]6(C)CC[C@H](OC(=O)[C@H]7C[C@@H](C(=O)O)C7(C)C)C(C)(C)[C@@H]6CC[C@]54C)C2=C(C(C)C)C(=O)C3)c(C)o1` [Example 33, (1R,3S)-3-((((3aR,5aR,5bR,7aR,9S,11aR,11bR,13aS)-3a-(2-(2,5-dimethylfuran-3-carboxamido)-2-methylpropanamido)-1-isopropyl-5a,5b,8,8,11a-pentamethyl-2-oxo-3,3a,4,5,5a,5b,6,7,7a,8,9,10,11,11a,11b,12,13,13a-octadecahydro-2H-cyclopenta[a]chrysen-9-yl)oxy)carbonyl)-2,2-dimethylcyclobutane-1-carboxylic acid], the IC50 was less than 3 nM in experiment [1] (setting [4]), less than 50 nM in experiment [1] (setting [5]), less than 10 nM in experiment [2] and less than 5 nM in experiment [3].

With `CC(C)C1=C2[C@H]3CC[C@@H]4[C@@]5(C)CC[C@H](OC(=O)[C@H]6C[C@@H](C(=O)O)C6(C)C)C(C)(C)[C@@H]5CC[C@@]4(C)[C@]3(C)CC[C@@]2(NC(=O)C(C)(C)NC(=O)CN2CCS(=O)(=O)CC2)CC1=O` [Example 34, (1R,3S)-3-((((3aR,5aR,5bR,7aR,9S,11aR,11bR,13aS)-3a-(2-(2-(1,1-dioxidothiomorpholino)acetamido)-2-methylpropanamido)-1-isopropyl-5a,5b,8,8,11a-pentamethyl-2-oxo-3,3a,4,5,5a,5b,6,7,7a,8,9,10,11,11a,11b,12,13,13a-octadecahydro-2H-cyclopenta[a]chrysen-9-yl)oxy)carbonyl)-2,2-dimethylcyclobutane-1-carboxylic acid], the IC50 in experiment [1] (setting [4]) is less than 3 nM; in experiment [1] (setting [5]), less than 50 nM; in experiment [2], 10 to 50 nM; in experiment [3], less than 5 nM.

`CC(C)C1=C2[C@H]3CC[C@@H]4[C@@]5(C)CC[C@H](OC(=O)[C@H]6C[C@@H](C(=O)O)C6(C)C)C(C)(C)[C@@H]5CC[C@@]4(C)[C@]3(C)CC[C@@]2(NC(=O)C2(NC(=O)c3ccc(Cl)cc3)CC2)CC1=O` [Example 37, (1R,3S)-3-((((3aR,5aR,5bR,7aR,9S,11aR,11bR,13aS)-3a-(1-(4-chlorobenzamido)cyclopropane-1-carboxamido)-1-isopropyl-5a,5b,8,8,11a-pentamethyl-2-oxo-3,3a,4,5,5a,5b,6,7,7a,8,9,10,11,11a,11b,12,13,13a-octadecahydro-2H-cyclopenta[a]chrysen-9-yl)oxy)carbonyl)-2,2-dimethylcyclobutane-1-carboxylic acid]: the IC50 in experiment [1] (setting [4]) was less than 3 nM; in experiment [1] (setting [5]), less than 50 nM; in experiment [2], less than 10 nM; in experiment [3] it was less than 5 nM.

`Cc1ccc(C(=O)NC2(C(=O)N[C@@]34CC[C@]5(C)[C@H](CC[C@@H]6[C@@]7(C)CC[C@H](OC(=O)[C@H]8C[C@@H](C(=O)O)C8(C)C)C(C)(C)[C@@H]7CC[C@]65C)C3=C(C(C)C)C(=O)C4)CC2)cn1` [Example 38, (1R,3S)-3-((((3aR,5aR,5bR,7aR,9S,11aR,11bR,13aS)-1-isopropyl-5a,5b,8,8,11a-pentamethyl-3a-(1-(6-methylnicotinamido)cyclopropane-1-carbox amido)-2-oxo-3,3a,4,5,5a,5b,6,7,7a,8,9,10,11,11a,11b,12,13,13a-octadecahydro-2H-cyclopenta[a]chrysen-9-yl)oxy)carbonyl)-2,2-dimethylcyclobutane-1-carboxylic acid]: the IC50 was less than 3 nM in experiment [1] (setting [4]), less than 50 nM in experiment [1] (setting [5]), less than 10 nM in experiment [2] and less than 5 nM in experiment [3].

Regarding `CC(C)C1=C2[C@H]3CC[C@@H]4[C@@]5(C)CC[C@H](OC(=O)[C@H]6C[C@@H](C(=O)O)C6(C)C)C(C)(C)[C@@H]5CC[C@@]4(C)[C@]3(C)CC[C@@]2(NC(=O)C2(NC(=O)c3ccc(F)cc3)CC2)CC1=O` [Example 39, (1R,3S)-3-((((3aR,5aR,5bR,7aR,9S,11aR,11bR,13aS)-3a-(1-(4-fluorobenzamido)cyclopropane-1-carboxamido)-1-isopropyl-5a,5b,8,8,11a-pentamethyl-2-oxo-3,3a,4,5,5a,5b,6,7,7a,8,9,10,11,11a,11b,12,13,13a-octadecahydro-2H-cyclopenta[a]chrysen-9-yl)oxy)carbonyl)-2,2-dimethylcyclobutane-1-carboxylic acid], the IC50 is less than 3 nM in experiment [1] (setting [4]), less than 50 nM in experiment [1] (setting [5]), 10 to 50 nM in experiment [2] and 5.01 to 10 nM in experiment [3].

In the case of `Cc1ccc(C(=O)NC2(C(=O)N[C@@]34CC[C@]5(C)[C@H](CC[C@@H]6[C@@]7(C)CC[C@H](OC(=O)[C@H]8C[C@@H](C(=O)O)C8(C)C)C(C)(C)[C@@H]7CC[C@]65C)C3=C(C(C)C)C(=O)C4)CC2)cc1` [Example 40, (1R,3S)-3-((((3aR,5aR,5bR,7aR,9S,11aR,11bR,13aS)-1-isopropyl-5a,5b,8,8,11a-pentamethyl-3a-(1-(4-methylbenzamido)cyclopropane-1-carboxamido)-2-oxo-3,3a,4,5,5a,5b,6,7,7a,8,9,10,11,11a,11b,12,13,13a-octadecahydro-2H-cyclopenta[a]chrysen-9-yl)oxy)carbonyl)-2,2-dimethylcyclobutane-1-carboxylic acid], the IC50 is less than 3 nM in experiment [1] (setting [4]), less than 50 nM in experiment [1] (setting [5]), less than 10 nM in experiment [2] and less than 5 nM in experiment [3].

As to `CC(C)C1=C2[C@H]3CC[C@@H]4[C@@]5(C)CC[C@H](OC(=O)[C@@H]6C[C@H](C(=O)O)C6(C)C)C(C)(C)[C@@H]5CC[C@@]4(C)[C@]3(C)CC[C@@]2(NC(=O)C2(NC(=O)c3ccc(Cl)cc3)CC2)CC1=O` [Example 41, (1S,3R)-3-((((3aR,5aR,5bR,7aR,9S,11aR,11bR,13aS)-3a-(1-(4-chlorobenzamido)cyclopropane-1-carboxamido)-1-isopropyl-5a,5b,8,8,11a-pentamethyl-2-oxo-3,3a,4,5,5a,5b,6,7,7a,8,9,10,11,11a,11b,12,13,13a-octadecahydro-2H-cyclopenta[a]chrysen-9-yl)oxy)carbonyl)-2,2-dimethylcyclobutane-1-carboxylic acid], the 50% inhibitory concentration (IC50) was less than 3 nM in experiment [1] (setting [4]), less than 50 nM in experiment [1] (setting [5]), 10 to 50 nM in experiment [2] and greater than 10 nM in experiment [3].

`CC(C)C1=C2[C@H]3CC[C@@H]4[C@@]5(C)CC[C@H](OC(=O)[C@H]6C[C@@H](C(=O)O)C6(C)C)C(C)(C)[C@@H]5CC[C@@]4(C)[C@]3(C)CC[C@@]2(NC(=O)C2(NC(=O)c3ccc(Cl)cc3)CCC2)CC1=O` [Example 42, (1R,3S)-3-((((3aR,5aR,5bR,7aR,9S,11aR,11bR,13aS)-3a-(1-(4-chlorobenzamido)cyclobutane-1-carboxamido)-1-isopropyl-5a,5b,8,8,11a-pentamethyl-2-oxo-3,3a,4,5,5a,5b,6,7,7a,8,9,10,11,11a,11b,12,13,13a-octadecahydro-2H-cyclopenta[a]chrysen-9-yl)oxy)carbonyl)-2,2-dimethylcyclobutane-1-carboxylic acid]: the 50% inhibitory concentration (IC50) is less than 3 nM in experiment [1] (setting [4]), less than 50 nM in experiment [1] (setting [5]), less than 10 nM in experiment [2] and 5.01 to 10 nM in experiment [3].

The values above are taken from patent US11034718B2, “C-3 novel triterpenone with C-17 reverse amide derivatives as HIV inhibitors” (HETERO LABS LIMITED, priority 2015, dated 2021).
